Assay results taken from ChEMBL document CHEMBL1154184, “Rational design and synthesis of potent dibenzazepine motifs as beta-secretase inhibitors” (J Med Chem, 2009).

target: Beta-secretase 1 (Homo sapiens, UniProt P56817); assay: Inhibition of human recombinant BACE1 by FRET assay
Sequence (P56817 whole entry): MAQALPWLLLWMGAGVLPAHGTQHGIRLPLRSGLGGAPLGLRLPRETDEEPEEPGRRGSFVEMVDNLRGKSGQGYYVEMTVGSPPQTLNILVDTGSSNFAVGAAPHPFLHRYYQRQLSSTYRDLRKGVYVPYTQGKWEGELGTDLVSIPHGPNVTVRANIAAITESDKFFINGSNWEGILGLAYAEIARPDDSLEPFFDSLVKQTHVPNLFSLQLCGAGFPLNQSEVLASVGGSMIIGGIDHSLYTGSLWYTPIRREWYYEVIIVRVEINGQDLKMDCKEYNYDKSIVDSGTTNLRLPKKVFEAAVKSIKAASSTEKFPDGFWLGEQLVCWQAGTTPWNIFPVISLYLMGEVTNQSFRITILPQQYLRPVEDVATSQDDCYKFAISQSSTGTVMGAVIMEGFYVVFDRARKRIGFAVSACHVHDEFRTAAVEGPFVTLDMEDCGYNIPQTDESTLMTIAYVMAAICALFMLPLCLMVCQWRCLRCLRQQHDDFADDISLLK

SMILES	Ki [nM]
C[C@@H](NC(=O)c1cc(NS(C)(=O)=O)cc(C(=O)N[C@@H](Cc2ccccc2)[C@@H](O)CNC2CC2)c1)c1ccc(F)cc1	10
O=C(Nc1nc2ccc(F)cc2[nH]1)c1ccc2c(c1)Nc1ccccc1NC2=O	244
O=C(Nc1ccc(F)cc1)c1ccc2c(c1)Nc1ccccc1NC2=O	211
O=C(Nc1ccncc1)c1ccc2c(c1)Nc1ccccc1NC2=O	295
O=C(Nc1nc2ccncc2[nH]1)c1ccc2c(c1)Nc1ccccc1NC2=O	309
O=C(Nc1nc(-c2ccncc2)c[nH]1)c1ccc2c(c1)Nc1ccccc1NC2=O	348
O=C(Nc1nc(-c2ccc(F)cc2)c[nH]1)c1ccc2c(c1)Nc1ccccc1NC2=O	293
